This note sets out measurements from patent US11312719B2, “9-substituted amino triazolo quinazoline derivatives as adenosine receptor antagonists, pharmaceutical compositions and their use” (Merck Sharp & Dohme Corp., priority 2018, dated 2022).

Where only a bound is given, the exact number is not on record here.

Usually IC50 stands for the point on the concentration scale where inhibition reaches its midpoint. A lower IC50 goes with greater potency in that assay.

One assay concerns the target human A2A receptors (Homo sapiens (Human), UniProt P29274). Nature of the assay: A2A antagonism in cAMP cell-based assay (LANCE cAMP, HEK293). The settings on record: HEK293 cells expressing human A2A receptor. The method in brief: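 HEK293 cells expressing human A2A or A2B, in HBSS/5 mM HEPES/200 nM rolipram, were preincubated with compound (0.5–10,000 nM, 0.25% DMSO) 30 min at 37° C. Adenosine was then added from 300 nM (A2A) or 600 nM (A2B) solution for 30 min.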
(TR-FRET usually uses a lanthanide donor and a delayed reading to cut background.)

A further assay has as its target human A2B receptors (Homo sapiens (Human), UniProt P29275). Nature of the assay: A2B antagonism in cAMP cell-based assay (LANCE cAMP, HEK293). The settings on record: HEK293 cells expressing human A2B receptor; for A2B cAMP % Inh. @10000 nM: at 10000 nM. The protocol:
Measurement of A2A and A2B Antagonism in cAMP Cell-Based Assay
The ability of compounds to antagonize human A2A and A2B adenosine receptors was determined using a kit to measure changes in intracellular cyclic AMP levels (LANCE cAMP 384 Kit, Perkin Elmer, Cat. No. AD0264). HEK293 cells recombinantly expressing either human A2A or A2B receptors, previously frozen in Recovery Medium (Life Technologies, Cat. No. 12648-010) were thawed and diluted into stimulation buffer (HBSS (Hyclone SH 30268.01), 5 mM HEPES (Gibco 15630-106), 200 nM rolipram (Tocris, Cat. No. 0905), and 1.5% (V/v) BSA stabilizer (kit component). The cell suspension was centrifuged at 200×g for 10 min and then resuspended in stimulation buffer, supplemented with a 1:10 000 dilution of Alexa Fluor 647 anti-cAMP antibody, to a density of 6.0×10^5 cells/mL. A Labcyte Echo 550 acoustic dispenser was used to transfer up to 25 nL of test compound dissolved in DMSO into the wells of a dry Optiplate-384 plate (Perkin Elmer, Cat. No. 6008289). All subsequent liquid additions were performed using a multichannel pipettor. Next, 5 μL of the cell suspension was added to the wells of the Optiplate-384 and incubated for 30 min. at 37° C. and 5% CO2 in a humidified environment. After this time 5 μL of either 300 nM or 600 nM adenosine (Sigma Cat. No. A9251) for A2A and A2B respectively was added and incubated for 30 minutes at 37° C. and 5% CO2 in a humidified environment. At this time detection mix was prepared by combining the LANCE Eu-W8044 labeled streptavidin and Biotin-cAMP in detection buffer according to the manufacturers protocol. 10 μL of the detection mix was added to each well of the Optiplate-384 which was covered with a plate seal and incubated under ambient conditions for 2 hours prior to reading the plate using an Envision (Perkin Elmer, Waltham, Mass.) multimode plate reader. Data was normalized by defining minimal effect as stimulation in the presence of 0.25% (v/v) DMSO and maximal effect as stimulation in the presence of 1 μM ZM241385 (Cayman, Cat. No. 1036). Curve fitting of the percent effect data versus the log of compound concentration used a 4-parameter concentration response curve fitting algorithm to calculate IC50 values. Compound concentrations tested were 10,000, 3,333, 1,111, 370.4, 123.4, 41.2, 13.7, 4.6, 1.5 and 0.5 nM with 0.25% residual DMSO.

Chain of human A2B receptors (P29275 whole entry): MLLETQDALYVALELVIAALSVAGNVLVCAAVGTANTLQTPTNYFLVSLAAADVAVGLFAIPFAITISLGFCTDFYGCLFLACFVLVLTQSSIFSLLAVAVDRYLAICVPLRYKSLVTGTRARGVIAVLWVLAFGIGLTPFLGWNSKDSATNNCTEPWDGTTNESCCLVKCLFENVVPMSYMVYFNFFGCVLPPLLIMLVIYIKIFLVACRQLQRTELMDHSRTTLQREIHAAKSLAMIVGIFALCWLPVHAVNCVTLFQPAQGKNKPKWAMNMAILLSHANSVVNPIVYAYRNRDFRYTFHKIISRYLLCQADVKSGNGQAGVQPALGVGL
Chain of human A2A receptors (P29274 whole entry): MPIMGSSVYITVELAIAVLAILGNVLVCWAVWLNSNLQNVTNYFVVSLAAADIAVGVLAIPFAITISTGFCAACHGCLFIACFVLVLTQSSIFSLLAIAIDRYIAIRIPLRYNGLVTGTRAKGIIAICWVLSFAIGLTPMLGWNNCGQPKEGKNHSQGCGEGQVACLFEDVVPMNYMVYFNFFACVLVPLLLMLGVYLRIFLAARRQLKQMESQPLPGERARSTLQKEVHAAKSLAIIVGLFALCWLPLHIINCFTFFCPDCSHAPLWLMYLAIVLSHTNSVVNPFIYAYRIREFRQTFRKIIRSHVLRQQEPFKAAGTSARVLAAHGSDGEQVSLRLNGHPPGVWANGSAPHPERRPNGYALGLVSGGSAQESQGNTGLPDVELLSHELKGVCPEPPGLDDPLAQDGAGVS

Turning to `C[C@@H]1CC[C@H](c2nc3c4cc(F)cc(F)c4nc(N)n3n2)CN1c1cnn(C(C)(CO)CO)c1` (single isomer, unassigned) [Example 249, 2-(4-((2R,5S or 2S,5R)-5-(5-amino-7,9-difluoro-[1,2,4]triazolo[1,5-c]quinazolin-2-yl)-2-methylpiperidin-1-yl)-1H-pyrazol-1-yl)-2-methylpropane-1,3-diol], the IC50 against human A2A receptors came out at 26.9 nM; at human A2B receptors it was 197 nM.

In the case of `COc1cc(F)cc2c1nc(N)n1nc(C3CC(C)CN(c4cnn(CC(C)(C)O)c4C)C3)nc21` (single isomer, unassigned) [Example 173, 1-(4-((3R,5S or 3S,5R)-3-(5-amino-9-fluoro-7-methoxy-[1,2,4]triazolo[1,5-c]quinazolin-2-yl)-5-methylpiperidin-1-yl)-5-methyl-1H-pyrazol-1-yl)-2-methylpropan-2-ol], the IC50 was 20.7 nM on human A2A receptors and 2020 nM at human A2B receptors.

In the case of `CC1CCC(c2nc3c4cc(F)cc(F)c4nc(N)n3n2)CN1c1cnn(CC(C)(O)CO)c1` (single isomer, unassigned) [Example 259, (S or R)-2-(4-((2R,5S or 2S,5R)-5-(5-amino-7,9-difluoro-[1,2,4]triazolo[1,5-c]quinazolin-2-yl)-2-methylpiperidin-1-yl)-1H-pyrazol-1-yl)-2-methylpropane-1,2-diol], the figures for the IC50 at human A2A receptors and against human A2B receptors were 2.3 nM and 11.8 nM, respectively.

Regarding `CC(O)C(C)n1cc(N2CCC[C@@H](c3nc4c5cc(F)cc(F)c5nc(N)n4n3)C2)cn1` (single isomer, unassigned) [Example 204, (2S,3R or 2R,3S)-3-(4-((R)-3-(5-amino-7,9-difluoro-[1,2,4]triazolo[1,5-c]quinazolin-2-yl)piperidin-1-yl)-1H-pyrazol-1-yl)butan-2-ol], the figures for the IC50 on human A2A receptors and on human A2B receptors were 7.8 nM and 87.7 nM, respectively.

As to `COc1cc(F)cc2c1nc(N)n1nc(C3CC(C)CN(c4cnn(C(C)C(C)O)c4C)C3)nc21` (single isomer, unassigned) [Example 221, (2R,3R or 2S,3S)-3-(4-((3R,5S or 3S,5R)-3-(5-amino-9-fluoro-7-methoxy-[1,2,4]triazolo[1,5-c]quinazolin-2-yl)-5-methylpiperidin-1-yl)-5-methyl-1H-pyrazol-1-yl)butan-2-ol], the IC50 came out at 0.5 nM against human A2A receptors and 63 nM at human A2B receptors.

In the case of `COc1cc2nc(N)n3nc([C@H]4CC[C@@H](C)N(c5cnn([C@H](C)[C@@H](C)O)c5)C4)nc3c2cc1F` (single isomer, unassigned) [Example 230, (2R,3R or 2S,3S)-3-(4-((2R,5S or 2S,5R)-5-(5-amino-9-fluoro-8-methoxy-[1,2,4]triazolo[1,5-c]quinazolin-2-yl)-2-methylpiperidin-1-yl)-1H-pyrazol-1-yl)butan-2-ol], the IC50 against human A2A receptors is 32.9 nM; against human A2B receptors it was 724 nM.

`COc1cc2nc(N)n3nc(C4CCC(C)N(c5cnn(C(C)C(C)O)c5)C4)nc3c2cc1F` (single isomer, unassigned) [Example 239, (2R,3S or 2S,3R)-3-(4-((2R,5S or 2S,5R)-5-(5-amino-9-fluoro-8-methoxy-[1,2,4]triazolo[1,5-c]quinazolin-2-yl)-2-methylpiperidin-1-yl)-1H-pyrazol-1-yl)butan-2-ol]: inhibition against human A2A receptors was half-maximal at 75.1 nM (IC50). For the same molecule, the “A2B cAMP % Inh. @10000 nM” value on human A2B receptors was 10% Inh.

On to `COc1cc2nc(N)n3nc([C@H]4C[C@@H](C)CN(c5cn([C@@H](C)[C@H](C)O)nc5C)C4)nc3c2cc1F` (single isomer, unassigned) [Example 211, (2S,3S or 2R,3R)-3-(4-((3S,5R or 3R,5S)-3-(5-amino-9-fluoro-8-methoxy-[1,2,4]triazolo[1,5-c]quinazolin-2-yl)-5-methylpiperidin-1-yl)-3-methyl-1H-pyrazol-1-yl)butan-2-ol], for which the results for the IC50 against human A2A receptors and on human A2B receptors were 89.3 nM and more than 10000 nM, respectively.

With `COc1cc(F)cc2c1nc(N)n1nc(C3CCC(C)N(c4cnn(C(C)(C)C(C)O)c4)C3)nc21` (single isomer, unassigned) [Example 271, (S or R)-3-(4-((2R,5S or 2S,5R)-5-(5-amino-9-fluoro-7-methoxy-[1,2,4]triazolo[1,5-c]quinazolin-2-yl)-2-methylpiperidin-1-yl)-1H-pyrazol-1-yl)-3-methylbutan-2-ol], the results for the IC50 against human A2A receptors and on human A2B receptors were 21.4 nM and 242 nM, respectively.

In the case of `COc1cc2nc(N)n3nc(C4CCC(C)N(c5cnn(CC(C)(O)CO)c5)C4)nc3c2cc1F` (single isomer, unassigned) [Example 255], the IC50 turned out to be 2.6 nM against human A2A receptors and 28.8 nM against human A2B receptors.

Take `COc1cc2nc(N)n3nc(C4CC(C)CN(c5cnn(CC(C)(C)O)c5C)C4)nc3c2cc1F` (single isomer, unassigned) [Example 275, 1-((4-((3S,5R or 3R,5S)-5-(5-amino-9-fluoro-8-methoxy-[1,2,4]triazolo[1,5-c]quinazolin-2-yl)-5-methylpiperidin-1-yl)-5-methyl-1H-pyrazol-1-yl)-2-methylpropan-2-ol]: the IC50 against human A2A receptors stood at 15.6 nM; against human A2B receptors, 2470 nM.

With `Cc1nn(C(C)C(C)O)cc1N1CC(C)CC(c2nc3c4cc(F)cc(F)c4nc(N)n3n2)C1` (single isomer, unassigned) [Example 212, (2S,3S or 2R,3R)-3-(4-((3R,5S or 3S,5R)-3-(5-amino-7,9-difluoro-[1,2,4]triazolo[1,5-c]quinazolin-2-yl)-5-methylpiperidin-1-yl)-3-methyl-1H-pyrazol-1-yl)butan-2-ol], at human A2A receptors, half-maximal inhibition (IC50) was put at 122 nM. Besides, the “A2B cAMP % Inh. @10000 nM” value on human A2B receptors was 27% Inh.

As for `Cc1nn(C(C)(C)CO)cc1N1CC(C)CC(c2nc3c4cc(F)cc(F)c4nc(N)n3n2)C1` (single isomer, unassigned) [Example 178, 2-(4-((3S,5R or 3R,5S)-3-(5-amino-7,9-difluoro-[1,2,4]triazolo[1,5-c]quinazolin-2-yl)-5-methylpiperidin-1-yl)-3-methyl-1H-pyrazol-1-yl)-2-methylpropan-1-ol], the IC50 was 0.6 nM against human A2A receptors and 11.5 nM against human A2B receptors.

The molecule `COc1cc2nc(N)n3nc([C@H]4C[C@@H](C)CN(c5cn([C@H](C)[C@@H](C)O)nc5C)C4)nc3c2cc1F` (single isomer, unassigned) [Example 210, (2R,3R or 2S,3S)-3-(4-((3S,5R or 3R,5S)-3-(5-amino-9-fluoro-8-methoxy-[1,2,4]triazolo[1,5-c]quinazolin-2-yl)-5-methylpiperidin-1-yl)-3-methyl-1H-pyrazol-1-yl)butan-2-ol] came in with an IC50 at human A2A receptors of 16.2 nM. Besides, on human A2B receptors, the “A2B cAMP % Inh. @10000 nM” value is recorded as 35% Inh.

Turning to `COc1cc2nc(N)n3nc(C4CCC(C)N(c5cnn(C(C)(CO)CO)c5)C4)nc3c2cc1F` (single isomer, unassigned) [Example 250, 2-(4-((2S,5R or 2R,5S)-5-(5-amino-9-fluoro-8-methoxy-[1,2,4]triazolo[1,5-c]quinazolin-2-yl)-2-methylpiperidin-1-yl)-1H-pyrazol-1-yl)-2-methylpropane-1,3-diol], the IC50 against human A2A receptors came out at 0.7 nM; against human A2B receptors, 4.9 nM.

Regarding `COc1cc(F)cc2c1nc(N)n1nc([C@@H]3CCCN(c4cn(C(C)C(C)O)nc4C)C3)nc21` (single isomer, unassigned) [Example 190], the IC50 against human A2A receptors stood at 0.8 nM; against human A2B receptors, 55.9 nM.

As for `CC1CC(c2nc3c4cc(F)cc(F)c4nc(N)n3n2)CN(c2cnn(CC(C)(C)O)c2)C1` (single isomer, unassigned) [Example 182, 1-(4-((3R,5R or 3S,5S)-3-(5-amino-7,9-difluoro-[1,2,4]triazolo[1,5-c]quinazolin-2-yl)-5-methylpiperidin-1-yl)-1H-pyrazol-1-yl)-2-methylpropan-2-ol], the IC50 at human A2A receptors is 362 nM; against human A2B receptors, more than 10000 nM.

For `COc1cc2nc(N)n3nc(C4CC(C)CN(c5cnn(C(C)(C)CO)c5)C4)nc3c2cc1F` (single isomer, unassigned) [Example 172, 2-(4-((3S,5R or 3R,5S)-3-(5-amino-9-fluoro-8-methoxy-[1,2,4]triazolo[1,5-c]quinazolin-2-yl)-5-methylpiperidin-1-yl)-1H-pyrazol-1-yl)-2-methylpropan-1-ol], half-maximal inhibition against human A2A receptors (IC50) required 60.5 nM. Also, the “A2B cAMP % Inh. @10000 nM” value on human A2B receptors was found to be 14% Inh.
